This passage reports inhibition and Activity results from ChEMBL document CHEMBL5715954, “Silencing c-Myc translation as a therapeutic strategy through targeting PI3Kδ and CK1ε in hematological malignancies” (Blood, 2017).

The source made the active and inactive calls. The calls are words filed in the database; no cut-off is given here.

The target of assay [1] is T1, mTORC1 (Homo sapiens) (UniProt P42345+Q8N122+Q9BVC4). The assay is described as follows: Inhibition of mTORC1 in human SLL cells assessed as reduction in c-Myc expression at 5 uM measured after 24 hrs by Western blot analysis. It counts as cell-based. A general note: In western blotting, separated proteins are transferred to a membrane and probed.
Assay [2] deals with T1, mTORC1 (Homo sapiens). Put plainly: Inhibition of mTORC1 in human PF-382 cells assessed as reduction in c-Myc expression at 5 uM measured after 24 hrs by Western blot analysis. The assay is classed as cell-based.
For assay [3], the target named is T1, mTORC1 (Homo sapiens). Put plainly: Inhibition of mTORC1 in human PF-382 cells assessed as reduction in 4E-BP1 phosphorylation at 5 uM measured after 24 hrs by Western blot analysis. It counts as cell-based.
The next assay concerns CLL cell. Put plainly: Induction of apoptosis in human CLL cells assessed as increase in cleaved-PARP expression at 5 uM measured after 24 hrs in presence of carfilzomib by Western blot analysis. It counts as functional, cell-based.
The test system of the next assay is Rec1. The assay is described as follows: Cytotoxicity against human REC1 cells assessed as reduction in cell viability measured after 24 hrs by cell titer-glo assay. It counts as functional, cell-based. (ATP-based viability assays read luminescence as a measure of living cells.)
The test system of assay [4] is OCI-Ly10. Put plainly: Induction of apoptosis in human LY10 cells assessed as increase in caspase-3/7 activation at 1 to 3 uM measured after 24 hrs in presence of carfilzomib. The note with it: dose 1-3 µM. It counts as functional, cell-based.
For assay [5], the target named is T1, mTORC1 (Homo sapiens). Put plainly: Inhibition of mTORC1 in human CLL cells assessed as reduction in 4E-BP1 phosphorylation at 5 uM measured after 24 hrs by Western blot analysis. It counts as cell-based. The note with it: CLL cell.
The test system of assay [6] is SLL. The assay is described as follows: Induction of apoptosis in human SLL cells assessed as increase in cleaved-PARP expression at 5 uM measured after 24 hrs in presence of carfilzomib by Western blot analysis. It counts as functional, cell-based.
The target of assay [7] is Myc proto-oncogene protein (Homo sapiens) (UniProt P01106). Put plainly: Inhibition of c-Myc in human LY7 cells assessed as reduction in eIF4B expression at 3 uM incubated for 24 hrs by Western blot analysis. The assay is classed as cell-based.
In assay [8] the target is T1, mTORC1 (Homo sapiens). Put plainly: Inhibition of mTORC1 in human LY10 cells assessed as reduction in c-Myc expression at 3 uM measured after 24 hrs in presence of carfilzomib by Western blot analysis. It counts as cell-based.
The target in assay [9] is T1, mTORC1 (Homo sapiens). The assay is described as follows: Inhibition of mTORC1 in human LY10 cells assessed as reduction in 4E-BP1 phosphorylation at 3 uM measured after 24 hrs by Western blot analysis. It counts as cell-based.
In assay [10] the target is Myc proto-oncogene protein (Homo sapiens) (UniProt P01106). The assay is described as follows: Inhibition of c-Myc in human LY10 cells assessed as reduction in eIF4B expression at 3 uM incubated for 24 hrs by Western blot analysis. The assay is classed as cell-based.
The target in assay [11] is T1, mTORC1 (Homo sapiens). The assay is described as follows: Inhibition of mTORC1 in human LY7 cells assessed as reduction in c-Myc expression at 3 uM measured after 24 hrs by Western blot analysis. The assay is classed as cell-based.
Another assay deals with H9. Put plainly: Cytotoxicity against human H9 cells assessed as reduction in cell viability measured after 48 hrs by cell titer-glo assay. It counts as functional, cell-based.
Assay [12] deals with LY7. The assay is described as follows: Induction of apoptosis in human LY7 cells assessed as increase in cleaved-PARP expression at 3 uM measured after 24 hrs in presence of carfilzomib by Western blot analysis. It counts as functional, cell-based.
For assay [13], the target named is Myc proto-oncogene protein (Homo sapiens) (UniProt P01106). The assay is described as follows: Inhibition of c-Myc in human LY10 cells assessed as reduction in E2F1 expression at 3 uM incubated for 24 hrs by Western blot analysis. It counts as cell-based.
In assay [14] the test system is OCI-Ly10. The assay is described as follows: Induction of apoptosis in human LY10 cells assessed as increase in cleaved-PARP expression at 3 uM measured after 24 hrs in presence of carfilzomib by Western blot analysis. It counts as functional, cell-based.
The next assay has as its system PF-382. Put plainly: Induction of apoptosis in human PF-382 cells assessed as increase in cleaved-PARP expression at 5 uM measured after 24 hrs in presence of carfilzomib by Western blot analysis. The assay is classed as functional, cell-based.
The target of assay [15] is T1, mTORC1 (Homo sapiens). The assay is described as follows: Inhibition of mTORC1 in human LY10 cells assessed as reduction in c-Myc mRNA expression at 3 uM measured after 24 hrs in presence of carfilzomib. It counts as cell-based.
Assay [16] has as its target T1, mTORC1 (Homo sapiens). The assay is described as follows: Inhibition of mTORC1 in human LY10 cells assessed as reduction in c-Myc expression at 3 uM measured after 24 hrs in presence of bortezomib by Western blot analysis. It counts as cell-based.
Assay [17] deals with SLL. The assay is described as follows: Induction of apoptosis in human SLL cells assessed as increase in cleaved-PARP expression at 5 uM measured after 24 hrs in presence of bortezomib by Western blot analysis. It counts as functional, cell-based.
Assay [18] deals with LY7. The assay is described as follows: Inhibition of PI3Kdelta/CK1epsilon in human LY7 cells assessed as reduction in c-Myc expression at 15 to 50 uM measured after 24 hrs by Western blot analysis. It counts as cell-based. The note with it: dose 15-50 µM.
Another assay deals with OCI-Ly7. The assay is described as follows: Cytotoxicity against human OCILY7 cells transfected with c-Myc-expressing plasmid (M+) assessed as reduction in cell viability at 7.5 to 25 uM incubated for 24 hrs by cell-titer glo assay. The assay is classed as functional, cell-based. The note with it: dose 7.5-25 µM.
Assay [19] has as its target T1, mTORC1 (Homo sapiens). Put plainly: Inhibition of mTORC1 in human PF-382 cells assessed as reduction in 4E-BP1 phosphorylation at 5 uM measured after 24 hrs in presence of carfilzomib by Western blot analysis. The assay is classed as cell-based.
Assay [20] deals with Myc proto-oncogene protein (Homo sapiens) (UniProt P01106). The assay is described as follows: Inhibition of c-Myc in human LY10 cells assessed as reduction in eIF4B expression at 3 uM incubated for 24 hrs in presence of carfilzomib by Western blot analysis. The assay is classed as cell-based.
For assay [21] the target is unchanged. The assay is described as follows: Inhibition of c-Myc in human LY10 cells assessed as reduction in E2F1 expression at 3 uM incubated for 24 hrs in presence of carfilzomib by Western blot analysis. The assay is classed as cell-based.

T1 sequence (Q8N122 whole entry, looked up, other chains not shown): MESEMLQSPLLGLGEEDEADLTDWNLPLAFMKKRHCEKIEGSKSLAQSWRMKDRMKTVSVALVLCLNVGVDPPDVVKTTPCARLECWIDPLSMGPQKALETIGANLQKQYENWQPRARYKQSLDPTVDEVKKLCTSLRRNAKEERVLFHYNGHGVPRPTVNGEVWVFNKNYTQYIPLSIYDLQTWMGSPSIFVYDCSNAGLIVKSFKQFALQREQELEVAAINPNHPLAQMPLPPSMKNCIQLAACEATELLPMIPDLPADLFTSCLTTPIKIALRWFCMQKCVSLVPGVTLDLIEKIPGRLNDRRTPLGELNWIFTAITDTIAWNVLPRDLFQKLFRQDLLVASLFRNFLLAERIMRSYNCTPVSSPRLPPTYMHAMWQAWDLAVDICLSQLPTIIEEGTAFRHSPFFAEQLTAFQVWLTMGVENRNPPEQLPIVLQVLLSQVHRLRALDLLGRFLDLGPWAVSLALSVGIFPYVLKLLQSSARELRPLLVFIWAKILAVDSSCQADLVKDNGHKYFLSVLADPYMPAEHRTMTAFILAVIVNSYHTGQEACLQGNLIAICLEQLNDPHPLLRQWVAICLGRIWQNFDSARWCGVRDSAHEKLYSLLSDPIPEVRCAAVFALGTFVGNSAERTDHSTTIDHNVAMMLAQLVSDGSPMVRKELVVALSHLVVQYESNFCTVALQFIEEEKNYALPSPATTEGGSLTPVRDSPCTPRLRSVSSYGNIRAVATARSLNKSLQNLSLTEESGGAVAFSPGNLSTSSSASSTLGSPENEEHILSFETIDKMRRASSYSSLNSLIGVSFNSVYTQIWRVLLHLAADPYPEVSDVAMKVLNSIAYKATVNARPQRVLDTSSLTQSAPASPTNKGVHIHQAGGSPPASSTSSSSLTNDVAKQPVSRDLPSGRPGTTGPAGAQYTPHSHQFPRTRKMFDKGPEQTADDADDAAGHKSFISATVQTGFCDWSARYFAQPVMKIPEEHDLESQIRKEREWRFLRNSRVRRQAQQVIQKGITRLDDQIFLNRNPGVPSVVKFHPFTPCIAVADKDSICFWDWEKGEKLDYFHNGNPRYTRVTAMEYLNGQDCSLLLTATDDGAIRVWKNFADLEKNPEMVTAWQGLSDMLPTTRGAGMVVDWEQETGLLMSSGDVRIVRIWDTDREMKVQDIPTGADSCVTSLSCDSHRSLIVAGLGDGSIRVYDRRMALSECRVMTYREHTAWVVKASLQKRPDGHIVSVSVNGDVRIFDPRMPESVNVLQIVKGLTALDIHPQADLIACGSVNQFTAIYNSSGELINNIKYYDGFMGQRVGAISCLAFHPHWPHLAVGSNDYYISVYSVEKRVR
T1 sequence (Q9BVC4 whole entry, looked up, other chains not shown): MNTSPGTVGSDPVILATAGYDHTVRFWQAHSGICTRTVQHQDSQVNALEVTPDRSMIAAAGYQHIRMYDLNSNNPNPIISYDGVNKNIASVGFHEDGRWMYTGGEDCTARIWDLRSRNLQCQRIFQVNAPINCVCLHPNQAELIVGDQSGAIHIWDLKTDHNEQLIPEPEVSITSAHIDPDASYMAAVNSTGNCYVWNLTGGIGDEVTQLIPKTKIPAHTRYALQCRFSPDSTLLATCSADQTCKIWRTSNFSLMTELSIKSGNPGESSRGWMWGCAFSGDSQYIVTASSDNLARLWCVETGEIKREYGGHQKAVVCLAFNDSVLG
Sequence of Myc proto-oncogene protein (Homo sapiens) (P01106 whole entry): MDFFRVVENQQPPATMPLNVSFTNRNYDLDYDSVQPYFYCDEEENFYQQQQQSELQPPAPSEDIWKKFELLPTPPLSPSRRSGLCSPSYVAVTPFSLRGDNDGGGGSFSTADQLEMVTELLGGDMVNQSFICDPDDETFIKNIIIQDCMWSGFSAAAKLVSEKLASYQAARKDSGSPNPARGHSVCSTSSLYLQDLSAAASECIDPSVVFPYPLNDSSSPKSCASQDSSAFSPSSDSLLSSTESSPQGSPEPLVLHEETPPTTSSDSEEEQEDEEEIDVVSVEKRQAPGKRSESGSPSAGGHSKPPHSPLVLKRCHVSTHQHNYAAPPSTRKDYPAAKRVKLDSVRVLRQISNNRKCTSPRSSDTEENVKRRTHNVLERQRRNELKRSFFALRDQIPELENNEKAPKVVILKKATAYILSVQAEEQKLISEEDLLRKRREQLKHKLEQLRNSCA

Turning to `CC[C@H](Nc1ncnc2[nH]cnc12)c1nc2cccc(F)c2c(=O)n1-c1ccccc1`, the inhibition entry (at mTORC1 (Homo sapiens) [1]; at mTORC1 (Homo sapiens) [2]; on mTORC1 (Homo sapiens) [3]; at mTORC1 (Homo sapiens) [5]; in assay [7]; on mTORC1 (Homo sapiens) [9]) was “inactive” in each case. Besides, the inhibition result (in assay [10]; on mTORC1 (Homo sapiens) [11]; in assay [13]; at mTORC1 (Homo sapiens) [15]; on mTORC1 (Homo sapiens) [16]) was “inactive” in each case. Moreover, the result in the assay on CLL cell, in the assay on Rec1, in the assay with OCI-Ly10 [4], with SLL [6], in the assay with H9 and in the assay on LY7 [12] was Active. Also, the outcome in the assay with OCI-Ly10 [14], in the assay with PF-382 and with SLL [17] was Active. For the same molecule, at mTORC1 (Homo sapiens) [8], the inhibition result is “Active”.

For `CC(C)Oc1ccc(-c2nn([C@@H](C)c3oc4ccc(F)cc4c(=O)c3-c3cccc(F)c3)c3ncnc(N)c23)cc1F` [UMBRALISIB], the inhibition entry (on mTORC1 (Homo sapiens) [1]; at mTORC1 (Homo sapiens) [2]; on mTORC1 (Homo sapiens) [3]; on mTORC1 (Homo sapiens) [5]; in assay [7]; on mTORC1 (Homo sapiens) [9]) was “inactive” each time. In addition, the inhibition entry (in assay [10]; at mTORC1 (Homo sapiens) [11]; in assay [13]; at mTORC1 (Homo sapiens) [15]) was “inactive” each time. In addition, the inhibition result (in the assay on LY7 [18]; at mTORC1 (Homo sapiens) [19]; on mTORC1 (Homo sapiens) [8]; in [20]; in [21]; at mTORC1 (Homo sapiens) [16]) was “Active” each time. Moreover, the result in the assay with CLL cell, in the assay with Rec1, in the assay on OCI-Ly10 [4], in the assay on SLL [6], in the assay with H9 and in the assay on LY7 [12] was Active. Further, the result in the assay with OCI-Ly10 [14] and in the assay on PF-382 was Active. Further, in the assay on OCI-Ly7, the outcome was inactive.
